In article PMC3319558, “Functional Correlates of Positional and Gender-Specific Renal Asymmetry in Drosophila” (PLoS ONE, 2012):
“Also recorded” adds a separate entry of the source. Ends that are not written are not given here. Peptide text beside a SMILES is read from it.

How the values were obtained:
[1] = test system: female tubules; experiment: Tubule fluid secretion assay; set-up: species or system Drosophila melanogaster; conditions: sNPF 10^−7 M added at 30 min, average rates before vs after addition
Protocol: (§1) Classical fluid secretion assays were performed as previously described by Dow et al.. Briefly, basal fluid secretion rates of the dissected live tubules were established for 30 min after which the required concentrations of peptides were added and secretion was measured for a further 70 min. The rates of secretion (in nl/min) were represented as the mean (±SEM) of approximately 30–35 tubules coming from 3 independent biological replicates.
(§2) sNPF (AQRSPSLRLRF-NH2) and MIP (AWQSLQSSW-NH2) peptides were synthesised by Biomatik, USA with a purity of greater than 98%. NPF ([…]-NH2) peptide was a kind gift from Professor Ian Orchard (University of Toronto Mississauga). According to the peptide profiles generated by peptide profile calculator (Gene Script, UK), they were dissolved first in water to produce a stock solution of 10 mM and subsequently diluted in the Schneider’s medium to get required final concentrations.

[2] = test system: male tubules; experiment: Tubule fluid secretion assay; set-up: species or system Drosophila melanogaster; conditions: sNPF 10^−7 M added at 30 min, average rates before vs after addition, *** Student's t-test, two tailed, P<0.05, N = 10 tubules (typical trace)
Protocol: as §1, §2

[3] = test system: Drosophila SPR; conditions: more sensitive to MIP than to SP itself; ref [59]; cited from earlier work
Description: (§3) Intriguingly, two well-known receptors (for sex peptide and neuropeptide F) are prominently male-enriched (Supporting information S1). Their spatial expression patterns are presented along with their peptide ligands in Supporting information S1. Sex peptide receptor (SPR) is 6.6x male-enriched.

[4] = test system: right and left tubules; conditions: right v. left tubules; chloride conductance under control of leucokinin through intracellular calcium; ref [48], [49]; cited from earlier work
Description: Bestrophin 2 encodes (of four Drosophila bestrophins) the most closely related to human bestrophin 1, a calcium- and volume-activated chloride channel of retinal pigmented epithelial cells, which is mutated in Best’s macular dystrophy, [44]. However, Bestrophins play wider roles: they are implicated in epithelial-to-mesenchymal transitions in human kidney, and in olfactory transduction. In Drosophila, Best1 also mediates a calcium and volume activated chloride current. FlyAtlas reports that, although expressed in eye, Best2 is abundant in epithelia; in adult tubul ...

[5] = test system: female; conditions: transferred with the sperm to the female; ref [58]; cited from earlier work
Description: as §3

[6] = test system: male Malpighian tubules; conditions: 3 h
Protocol: Cytosolic [Ca^2+]cyto or peroxisomal [Ca^2+]perox calcium was measured in tubules expressing transgenic aequorin according to published protocols [88], [89]. Briefly, the tubules were dissected, incubated at room temperature with 2.5 µM coelenterazine to reconstitute aequorin for 3 h. Calcium-dependent aequorin luminescence was measured in 10 biological replicates each containing 20-pairs of tubules. At the end of each experiment, total aequorin was released using 300 µl of lysis buffer (1% (v/v) Triton X-100, 100 mM CaCl2) in order to calculate the total luminescence; and the data were back-integrated using a program written in Perl, based on the method described by Button and Eidsath [90]. Data are presented as the mean (±SEM) and statistical significance was calculated using unpaired t-test.

Molecule: AQRSPSLRLRF-NH2 [sNPF, short neuropeptide F, distantly related peptide, the so called short neuropeptide F; synthesised by Biomatik]
- Resting fluid secretion [1]: not female; also recorded: only of male tubules
- Resting fluid secretion [2]: inhibits fluid secretion in male; also recorded: inhibits resting fluid secretion

Molecule: AWQSLQSSW-NH2 [allatostatin-B, the Drosophila MIP, allatostatin-B]
- Sensitivity of Drosophila SPR relative to SP [3]: 10 x

Molecule: leucokinin: diuretic neuropeptide leucokinin, which acts through intracellular calcium (NSVVLGKKQRFHSWG; ends and bridges not checked; UniProt P81829 133-147, looked up)
- Action on right and left tubules [4]: acts equally on both right and left tubules

Molecule: Sex peptide: transferred with the sperm to the female (WEWPWNRKPTKFPIPSPNPRDKWCRLNLGPAWGGRC; ends and bridges not checked; cysteine pairing not given here; UniProt P05623 20-55, looked up)
- Change in female physiology and behaviour [5]: a reduction in receptivity to subsequent matings

Molecule: CSCC[C@H](NC(=O)[C@@H](NC(=O)[C@H](CC(N)=O)NC(=O)[C@@H](NC(=O)[C@H](CC(=O)O)NC(=O)[C@H](CC(N)=O)NC(=O)[C@H](CCCCN)NC(=O)[C@H](CCCNC(=N)N)NC(=O)[C@@H]1CCCN1C(=O)[C@@H]1CCCN1C(=O)[C@H](CCCNC(=N)N)NC(=O)[C@H](CO)NC(=O)[C@H](CC(N)=O)NC(=O)[C@@H](N)CO)C(C)C)[C@@H](C)O)C(=O)N[C@@H](C)C(=O)N[C@@H](CC(=O)O)C(=O)N[C@@H](C)C(=O)N[C@@H](Cc1ccc(O)cc1)C(=O)N[C@@H](CCCCN)C(=O)N[C@@H](Cc1ccccc1)C(=O)N[C@@H](CC(C)C)C(=O)N[C@@H](CCC(N)=O)C(=O)N[C@@H](CC(=O)O)C(=O)N[C@@H](CC(C)C)C(=O)N[C@@H](CC(=O)O)C(=O)N[C@H](C(=O)N[C@@H](Cc1ccc(O)cc1)C(=O)N[C@@H](Cc1ccc(O)cc1)C(=O)NCC(=O)N[C@@H](CC(=O)O)C(=O)N[C@@H](CCCNC(=N)N)C(=O)N[C@@H](C)C(=O)N[C@@H](CCCNC(=N)N)C(=O)N[C@H](C(=O)N[C@@H](CCCNC(=N)N)C(=O)N[C@@H](Cc1ccccc1)C(N)=O)C(C)C)[C@@H](C)O [NPF, neuropeptide F] (H-SNSRPPRKNDVNTMADAYKFLQDLDTYYGDRARVRF-NH2)
- EC50 [6]: 6 nM
